Data set [1] relates to Mus musculus. In words: Inhibition of TNF production in mouse at 10 mg/kg. Type of data set: functional.
The subject of another data set is PBMC. In words: Inhibition of TNF production in human PBMC. Type of data set: functional, cell-based.
Data set [2] deals with Mus musculus. Nature of the data set: Toxicity in mouse at 200 mg/kg. The following applies: in vivo. Also on record: dose 200 mg/kg. In kind it is organism-based.
Data set [3] addresses T1, MAP kinase p38 (Homo sapiens, UniProt O15264+Q15759+Q16539+P53778). Nature of the data set: Inhibition of p38 kinase. In kind it is protein assay.
Data set [4] concerns the target T2, 5-hydroxytryptamine receptor 3A (Homo sapiens, UniProt P46098).
T2 sequence (P46098 whole entry): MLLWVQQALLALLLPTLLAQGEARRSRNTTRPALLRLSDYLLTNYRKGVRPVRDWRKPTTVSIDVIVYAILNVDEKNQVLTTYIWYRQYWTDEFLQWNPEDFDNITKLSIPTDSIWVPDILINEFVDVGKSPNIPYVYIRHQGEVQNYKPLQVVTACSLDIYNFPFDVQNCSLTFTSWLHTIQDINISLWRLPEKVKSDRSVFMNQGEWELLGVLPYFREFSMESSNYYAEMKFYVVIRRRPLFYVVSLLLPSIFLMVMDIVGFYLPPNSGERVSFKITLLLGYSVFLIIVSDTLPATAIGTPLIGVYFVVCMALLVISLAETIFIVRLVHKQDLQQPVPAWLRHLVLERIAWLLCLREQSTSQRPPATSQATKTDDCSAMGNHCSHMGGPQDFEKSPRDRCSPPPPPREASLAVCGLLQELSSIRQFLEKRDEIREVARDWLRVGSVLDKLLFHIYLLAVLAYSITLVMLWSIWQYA
In words: Inhibition of 5HT3 receptor.

Data set [5] has as its target T1, MAP kinase p38. Nature of the data set: Inhibition of activated p38 kinase up to 10 uM. In kind it is protein assay.
For data set [6], the system named is Mus musculus. In words: Inhibition of TNF production in orally dosed mouse model. Type of data set: functional. The following applies: po.
The target of the next data set is Cytochrome P450 2C19 (Homo sapiens, UniProt P33261). In words: Inhibition of CYP2C19. In kind it is ADME.
Sequence of Cytochrome P450 2C19 (P33261 whole entry): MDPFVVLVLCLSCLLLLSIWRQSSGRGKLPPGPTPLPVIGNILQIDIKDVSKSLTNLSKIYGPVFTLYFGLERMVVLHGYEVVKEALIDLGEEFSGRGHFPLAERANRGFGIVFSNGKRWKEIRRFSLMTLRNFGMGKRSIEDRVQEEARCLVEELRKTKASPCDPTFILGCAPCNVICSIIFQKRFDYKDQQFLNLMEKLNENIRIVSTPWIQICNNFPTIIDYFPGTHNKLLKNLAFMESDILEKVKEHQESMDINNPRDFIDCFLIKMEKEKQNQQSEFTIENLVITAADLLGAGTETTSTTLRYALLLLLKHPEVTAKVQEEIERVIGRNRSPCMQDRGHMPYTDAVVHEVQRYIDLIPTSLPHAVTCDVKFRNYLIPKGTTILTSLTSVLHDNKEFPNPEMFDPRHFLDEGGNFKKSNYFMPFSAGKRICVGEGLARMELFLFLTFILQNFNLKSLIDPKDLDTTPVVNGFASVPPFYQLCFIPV
The target in a further data set is Cytochrome P450 3A4 (Homo sapiens, UniProt P08684). Nature of the data set: Inhibition of CYP3A4 below 15 uM. In kind it is ADME.
Sequence of Cytochrome P450 3A4 (P08684 whole entry): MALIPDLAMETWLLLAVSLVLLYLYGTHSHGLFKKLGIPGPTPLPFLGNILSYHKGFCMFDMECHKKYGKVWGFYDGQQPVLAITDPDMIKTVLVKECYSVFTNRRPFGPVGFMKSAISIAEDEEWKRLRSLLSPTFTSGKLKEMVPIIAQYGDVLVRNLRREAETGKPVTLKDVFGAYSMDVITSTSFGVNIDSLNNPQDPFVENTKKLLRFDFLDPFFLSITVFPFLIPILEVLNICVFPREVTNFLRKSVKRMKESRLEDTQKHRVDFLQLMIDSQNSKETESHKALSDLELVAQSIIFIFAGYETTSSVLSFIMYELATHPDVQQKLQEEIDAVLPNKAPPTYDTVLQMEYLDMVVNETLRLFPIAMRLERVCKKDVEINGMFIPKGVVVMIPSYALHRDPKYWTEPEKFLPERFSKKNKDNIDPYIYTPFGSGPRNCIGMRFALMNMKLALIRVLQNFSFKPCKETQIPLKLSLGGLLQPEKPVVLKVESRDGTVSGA
The test system of data set [7] is Mus musculus. In words: Inhibition of collagen-induced arthritis in mouse at 30 mg/kg, po. In kind it is functional.
The subject of the next data set is Rattus norvegicus. In words: Reduction of swelling in adjuvant-induced arthritis rat at 30 mg/kg, po. Type of data set: functional. Also on record: scale not given: the % may be the effect or the level left.
In data set [8] the target is Mitogen-activated protein kinase 14 (Homo sapiens, UniProt Q16539). Nature of the data set: Binding affinity to p38alpha.
Sequence of Mitogen-activated protein kinase 14 (Q16539 whole entry): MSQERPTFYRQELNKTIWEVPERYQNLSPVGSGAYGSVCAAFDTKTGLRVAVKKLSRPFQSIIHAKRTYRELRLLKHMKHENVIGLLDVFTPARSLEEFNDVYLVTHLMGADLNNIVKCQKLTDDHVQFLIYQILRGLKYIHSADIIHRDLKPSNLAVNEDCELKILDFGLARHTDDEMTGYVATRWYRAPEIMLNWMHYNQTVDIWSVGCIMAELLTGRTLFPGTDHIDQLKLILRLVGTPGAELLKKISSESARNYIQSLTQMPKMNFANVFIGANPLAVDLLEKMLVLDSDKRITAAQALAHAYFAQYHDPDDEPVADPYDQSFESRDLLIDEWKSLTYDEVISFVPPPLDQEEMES
For a further data set, the target named is Cytochrome P450 2C9 (Homo sapiens, UniProt P11712). In words: Inhibition of CYP2C9. In kind it is ADME.
Sequence of Cytochrome P450 2C9 (P11712 whole entry): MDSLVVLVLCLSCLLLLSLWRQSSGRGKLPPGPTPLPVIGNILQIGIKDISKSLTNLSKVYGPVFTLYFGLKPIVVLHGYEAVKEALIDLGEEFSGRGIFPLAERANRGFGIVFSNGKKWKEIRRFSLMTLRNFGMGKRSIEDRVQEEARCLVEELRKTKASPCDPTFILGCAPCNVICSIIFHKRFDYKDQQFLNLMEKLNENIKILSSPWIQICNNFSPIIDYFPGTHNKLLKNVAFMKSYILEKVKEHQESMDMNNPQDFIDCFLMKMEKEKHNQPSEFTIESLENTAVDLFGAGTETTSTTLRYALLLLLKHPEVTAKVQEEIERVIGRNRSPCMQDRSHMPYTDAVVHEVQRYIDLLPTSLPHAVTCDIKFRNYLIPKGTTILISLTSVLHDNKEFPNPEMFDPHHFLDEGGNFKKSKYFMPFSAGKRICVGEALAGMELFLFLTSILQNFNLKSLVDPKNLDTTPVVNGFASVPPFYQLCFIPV
The next data set has as its target T3, Cytochrome P450 1A2 (Homo sapiens, UniProt P05177).
T3 sequence (P05177 whole entry): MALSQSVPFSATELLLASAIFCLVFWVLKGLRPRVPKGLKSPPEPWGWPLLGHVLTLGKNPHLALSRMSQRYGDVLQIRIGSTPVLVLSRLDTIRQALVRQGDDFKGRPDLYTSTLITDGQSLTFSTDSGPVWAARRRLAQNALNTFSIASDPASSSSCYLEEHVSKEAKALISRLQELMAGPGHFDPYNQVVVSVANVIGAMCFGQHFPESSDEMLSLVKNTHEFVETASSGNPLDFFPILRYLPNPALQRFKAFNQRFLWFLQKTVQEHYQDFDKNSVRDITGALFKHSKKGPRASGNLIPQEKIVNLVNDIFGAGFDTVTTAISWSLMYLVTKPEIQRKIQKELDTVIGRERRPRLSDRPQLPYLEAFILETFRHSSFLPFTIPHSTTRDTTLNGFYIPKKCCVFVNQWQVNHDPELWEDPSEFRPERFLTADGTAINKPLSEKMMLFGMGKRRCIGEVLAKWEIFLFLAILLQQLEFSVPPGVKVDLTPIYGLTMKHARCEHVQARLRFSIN
Nature of the data set: Inhibition of CYP1A2 below 15 uM. In kind it is ADME.

In the next data set the target is Cytochrome P450 2D6 (Homo sapiens, UniProt P10635). Nature of the data set: Inhibition of CYP2D6 below 15 uM. Type of data set: ADME.
Sequence of Cytochrome P450 2D6 (P10635 whole entry): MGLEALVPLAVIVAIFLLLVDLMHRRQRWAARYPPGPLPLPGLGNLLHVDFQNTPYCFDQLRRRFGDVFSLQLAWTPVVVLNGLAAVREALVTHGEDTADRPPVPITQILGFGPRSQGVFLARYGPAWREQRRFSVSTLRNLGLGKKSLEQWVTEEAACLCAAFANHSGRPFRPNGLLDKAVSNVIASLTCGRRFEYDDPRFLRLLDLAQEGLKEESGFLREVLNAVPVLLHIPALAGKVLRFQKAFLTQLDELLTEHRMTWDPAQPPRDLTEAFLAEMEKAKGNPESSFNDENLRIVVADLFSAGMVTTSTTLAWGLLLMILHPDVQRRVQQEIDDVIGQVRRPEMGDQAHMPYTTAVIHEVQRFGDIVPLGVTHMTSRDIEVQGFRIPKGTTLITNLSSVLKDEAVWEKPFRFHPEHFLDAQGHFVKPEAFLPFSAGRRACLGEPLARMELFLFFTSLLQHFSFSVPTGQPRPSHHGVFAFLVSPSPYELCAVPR
The target of data set [9] is T1, MAP kinase p38. In words: Inhibition of p38 phosphorylation. Type of data set: protein assay.
The test system of data set [10] is Mus musculus. Nature of the data set: Inhibition of LPS-induced TNF production in mouse at 10 mg/kg after 2 hrs. In kind it is functional.
Data set [11] can be described thus: Bioavailability in rat. In kind it is ADME, organism-based. The following applies: in vivo.
A short description of data set [12]: Bioavailability in dog. In kind it is ADME, organism-based, Canis lupus familiaris. The following applies: in vivo.
Data set [13] can be described thus: Bioavailability in monkey. Type of data set: ADME, organism-based, Macaca mulatta. The following applies: rhesus monkey, in vivo.
The nature of data set [14]: Bioavailability in mouse. Type of data set: ADME, organism-based. The following applies: in vivo.

What is called inhibition in vivo is the change of the read-out against control, counted positive when it falls. The term IC50 denotes the concentration that inhibits the measured activity by half. As usually defined, the ED50 is the dose that gives a 50% effect, or the effect in half of the subjects. What is called Kd is the free concentration of one partner at which half of the binding sites on the other are occupied at equilibrium, for simple one-to-one binding. Usually bioavailability stands for dose-corrected exposure relative to a reference, in per cent.

Active and inactive are the calls of the source. The calls are words filed in the database; no cut-off is given here.

`CC(=O)C(=O)c1c(-c2ccc(F)cc2)c(-c2ccncc2)c(N2CCNCC2)n1C` yielded an inhibition in vivo at 10 mg/kg in the data set on Mus musculus [1] of 52%. Moreover, the IC50 in the data set with PBMC was 28 nM.
In the data set with PBMC, `COC(=O)c1c(-c2ccc(F)cc2)c(-c2ccncc2)c(C2=CCNCC2)n1C` displayed an IC50 of 72 nM. Further, the Activity result in the data set on Mus musculus [2] was “Non-toxic”.
For `CC(=O)c1c(-c2ccc(F)cc2)c(-c2ccncc2)c(N2CCNCC2)n1C`, in that order: 40 nM and “Non-toxic”.
On to `CCC(=O)c1c(-c2ccc(F)cc2)c(-c2ccncc2)c(N2CCNCC2)n1C`, for which the IC50 in the data set on PBMC turned out to be 67 nM.
Same read-out and setting: the figure for `COC(=O)c1c(-c2ccc(F)cc2)c(-c2ccncc2)c(N2CCCC2)n1C` is 17 nM.
For the compound `Cn1cc(-c2ccc(F)cc2)c(-c2ccncc2)c1N1CCNCC1`, in the data set on PBMC, the IC50 came to 15 nM.
In turn, `COC(=O)c1c(-c2ccc(F)cc2)c(-c2ccncc2)c(NCCN2CCOCC2)n1C` gave an IC50 with PBMC of 50 nM.
`CCOC(=O)c1c(-c2cc(F)cc(F)c2)c(-c2ccncc2)c(N2CCNCC2)n1C` registered an inhibition in vivo at 10 mg/kg with Mus musculus [1] of 79%. Moreover, the figures for the half-inhibitory concentration (IC50) in the data set with PBMC and against MAP kinase p38 [3] were 93 nM and greater than 10000 nM, respectively.
As for `COC(=O)c1c(-c2ccc(F)cc2)c(-c2ccncc2)c(N2CCNCC2)n1C`, the results for the IC50 (in the data set with PBMC; in data set [4]) were 33 nM and 275 nM, respectively. Besides, the Activity result in the data set with Mus musculus [2] is “Toxic”. On MAP kinase p38 [5], the outcome was inactive. Further, the ED50 in the data set with Mus musculus [6] was 7.5 mg/kg.
Consider `COC(=O)c1c(-c2ccc(F)cc2)c(-c2ccncc2)c(NCCN(C)C)n1C`, for which the IC50 in the data set on PBMC stood at 98 nM.
`Cn1c(C#N)c(-c2ccc(F)cc2)c(-c2ccncc2)c1N1CCNCC1`: in the data set with PBMC, half-maximal inhibition (IC50) required 18 nM. In the data set on Mus musculus [6], this compound gave a median effective dose (ED50) of 5 mg/kg.
As for `CC(=O)N1CCN(c2c(-c3ccncc3)c(-c3ccc(F)cc3)c(C#N)n2C)CC1` [listing 1 of 2 here], the 50% inhibitory concentration (IC50) came out at 8000 nM on Cytochrome P450 2C19, 123 nM in the data set on PBMC, 2000 nM on MAP kinase p38 [3] and 4000 nM on Cytochrome P450 2C9. Also, the Activity result at Cytochrome P450 3A4 is given as “Not Active”; in the data set on Rattus norvegicus, 91%; in the data set on Mus musculus [2], “Non-toxic”; at Cytochrome P450 1A2, “Not Active”; on Cytochrome P450 2D6, “Not Active”. In the data set on Mus musculus [7], this compound had an inhibition in vivo at 30 mg/kg of 50%. For the same compound, the Kd in data set [8] was determined as 100 nM. The compound also displayed a median effective dose (ED50) with Mus musculus [6] of 0.5 mg/kg.
Take `CC(=O)N1CCN(c2c(-c3ccncc3)c(-c3ccc(F)cc3)c(C#N)n2C)CC1` [listing 2 of 2 here]: the outcome at MAP kinase p38 [9] was Active.
In the data set on PBMC, `CC(C)NC(=O)c1c(-c2ccc(F)cc2)c(-c2ccncc2)c(N2CCNCC2)n1C` displayed a half-inhibitory concentration (IC50) of 10000 nM.
Regarding `CC(=O)c1c(-c2ccc(F)cc2)c(-c2ccncc2)c(N2CCN(C)CC2)n1C`, the half-maximal inhibitory concentration (IC50) with PBMC was determined as 529 nM. The inhibition in vivo at 10 mg/kg in the data set on Mus musculus [10] turned out to be 40%.
`CNC(=O)c1c(-c2ccc(F)cc2)c(-c2ccncc2)c(N2CCNCC2)n1C`: the midpoint of inhibition in the data set on PBMC, the IC50, lay at 779 nM.
With `CN1CCN(c2c(-c3ccncc3)c(-c3ccc(F)cc3)c(C#N)n2C)CC1`, half-maximal inhibition in the data set with PBMC (IC50) was put at 80 nM.
`COC(=O)c1c(-c2ccc(F)cc2)c(-c2ccncc2)c(N2CCN(C)CC2)n1C`: the IC50 in the data set on PBMC was 95 nM. Moreover, the Activity entry in the data set with Mus musculus [2] was “Non-toxic”.
For `CCOC(=O)c1c(-c2cccc(C(F)(F)F)c2)c(-c2ccncc2)c(N2CCNCC2)n1C`, the IC50 is 21 nM in the data set with PBMC and greater than 10000 nM against MAP kinase p38 [3].
With `COC(=O)c1c(-c2ccc(F)cc2)c(-c2ccncc2)c(NC2CCNCC2)n1C`, in the data set with PBMC, the 50% inhibitory concentration (IC50) amounted to 315 nM.
On to `CC(=O)N1CCN(c2c(-c3ccncc3)c(-c3ccc(F)cc3)c(C#N)n2C)CC1.Cl`, for which the bioavailability in [11], in [12], in data set [13] and in data set [14] was 70% in each case.
Take `CC(=O)c1c(-c2ccc(F)cc2)c(-c2ccncc2)c(N2CCN(C(C)=O)CC2)n1C`: in the data set with PBMC, the IC50 was 43 nM. Further, in the data set with Mus musculus [2], the Activity result is recorded as “Non-toxic”.
In the data set on PBMC, `CCCN1CCN(c2c(-c3ccncc3)c(-c3ccc(F)cc3)c(C(=O)OC)n2C)CC1` had an IC50 of 901 nM.
For the compound `Cn1c(C(=O)c2ccccc2)c(-c2ccc(F)cc2)c(-c2ccncc2)c1N1CCNCC1`, inhibition in the data set on PBMC was half-maximal at 660 nM (IC50).
In the case of `CCOC(=O)c1c(-c2ccc(C)cc2)c(-c2ccncc2)c(N2CCNCC2)n1C`, the inhibition in vivo at 10 mg/kg with Mus musculus [1] came to 79%. The values for the IC50 in the data set with PBMC and against MAP kinase p38 [3] were 60 nM and 3939 nM, respectively.
The compound `CCN1CCN(c2c(-c3ccncc3)c(-c3ccc(F)cc3)c(C(=O)OC)n2C)CC1` yielded an IC50 in the data set with PBMC of 135 nM. Moreover, the Activity entry in the data set on Mus musculus [2] is on record as “Non-toxic”.
In the data set with Mus musculus [1], `COC(=O)c1c(-c2ccc(F)cc2)c(-c2ccncc2)c(N(C)CCN2CCOCC2)n1C` showed an inhibition in vivo at 10 mg/kg of 78%. This compound also gave a 50% inhibitory concentration (IC50) in the data set with PBMC of 38 nM. The same compound registered a median effective dose (ED50) in the data set with Mus musculus [6] of 3 mg/kg.
`COC(=O)c1c(-c2ccc(F)cc2)c(-c2ccncc2)c(N2CCN(C(C)C)CC2)n1C`: half-maximal inhibition in the data set on PBMC (IC50) required 1980 nM.
`COC(=O)c1c(-c2ccc(F)cc2)c(-c2ccncc2)c(NCCN2CCCCC2)n1C`: in the data set with PBMC, the IC50 came out at 92 nM.
`COC(=O)c1c(-c2ccc(F)cc2)c(-c2ccncc2)c(N2CCOCC2)n1C`: it took 47 nM to reach half-maximal inhibition with PBMC (IC50).
